Measured values reported in ChEMBL document CHEMBL1201862, “PubChem BioAssay data set” (2004).
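Grown in 96-well plates, cells were treated for 48 hours with each compound at five concentrations. Insufficient inhibition: endpoint recorded as highest concentration tested. Abbreviation: GI50, concentration required for 50% inhibition of growth.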 The source made the active and inactive calls. Rule as the data show it: active = GI50 up to about 1.1 µM and inactive = higher.

What was measured:
Test in all cases: NCI anticancer screen, dose series, 48 h
SNB-19 = tested on: SNB-19
COLO 205 = tested on: COLO 205
SF-268 = tested on: SF-268
SK-MEL-2 = tested on: SK-MEL-2
SK-OV-3 = tested on: SK-OV-3
K562 = tested on: K562
HOP-92 = tested on: HOP-92
SF-539 = tested on: SF-539
OVCAR-8 = tested on: OVCAR-8
786-0 = tested on: 786-0
OVCAR-5 = tested on: OVCAR-5
A549 = tested on: A549
LOX IMVI = tested on: LOX IMVI
TK-10 = tested on: TK-10
NCI-H460 = tested on: NCI-H460
CCRF-CEM = tested on: CCRF-CEM
RXF 393 = tested on: RXF 393
UO-31 = tested on: UO-31
KM12 = tested on: KM12
SN12C = tested on: SN12C

Measured: GI50

O=c1c2ccccc2n2c(-c3ccc(O)cc3)nnc2n1-c1ccccc1
inactive: SNB-19 20.4 µM | COLO 205 77.6 µM | SF-268 21.8 µM | SK-MEL-2 20.7 µM | SK-OV-3 20.6 µM | K562 13.4 µM | HOP-92 23.3 µM | SF-539 18 µM | OVCAR-8 30.8 µM | 786-0 17.9 µM | OVCAR-5 96.6 µM | A549 20.5 µM | LOX IMVI 29.4 µM | TK-10 26.5 µM | NCI-H460 17.8 µM | CCRF-CEM 14.8 µM | RXF 393 20.5 µM | UO-31 3.72 µM | KM12 49.2 µM | SN12C 17.1 µM

COc1ccc(COC2CC(OC)OC(C)C2OC(=O)c2ccccc2)cc1 (stereo not given)
inactive: SNB-19 > 64.9 µM | COLO 205 34.6 µM | SF-268 39.8 µM | SK-MEL-2 54 µM | SK-OV-3 > 100 µM | K562 27.2 µM | HOP-92 50 µM | SF-539 54.1 µM | OVCAR-8 31.6 µM | 786-0 74.1 µM | OVCAR-5 30.2 µM | A549 33 µM | LOX IMVI 22.6 µM | TK-10 63.7 µM | NCI-H460 36.7 µM | CCRF-CEM 30.3 µM | RXF 393 19.1 µM | UO-31 22.7 µM | KM12 34.8 µM | SN12C 57.4 µM

Cc1cc(S(=O)(=O)O)c(NC(=O)C(=O)Cc2cc(=O)oc3cc(O)ccc23)cc1Cl
inactive: SNB-19 > 100 µM | COLO 205 > 100 µM | SF-268 > 100 µM | SK-MEL-2 > 100 µM | SK-OV-3 > 100 µM | K562 > 100 µM | HOP-92 > 100 µM | SF-539 > 100 µM | OVCAR-8 > 100 µM | 786-0 > 100 µM | OVCAR-5 > 100 µM | A549 > 100 µM | LOX IMVI > 100 µM | TK-10 > 100 µM | NCI-H460 > 100 µM | CCRF-CEM > 100 µM | RXF 393 > 100 µM | UO-31 > 100 µM | KM12 > 100 µM | SN12C > 100 µM

C/C(=N\N=C1/C(=O)OC(c2ccccc2)=C1C(=O)c1ccccc1)c1ccc([N+](=O)[O-])cc1
inactive: SNB-19 > 100 µM | COLO 205 52.2 µM | SF-268 > 100 µM | SK-MEL-2 > 100 µM | SK-OV-3 85.3 µM | K562 35 µM | HOP-92 20.5 µM | SF-539 65.2 µM | OVCAR-8 35.7 µM | 786-0 68.7 µM | OVCAR-5 72.3 µM | A549 41.7 µM | LOX IMVI 34.8 µM | TK-10 > 100 µM | NCI-H460 56.1 µM | CCRF-CEM 25.6 µM | RXF 393 46 µM | UO-31 44.7 µM | KM12 86.3 µM | SN12C 49.4 µM

Cn1cc(C(=O)c2ccccc2)cc(C(=O)c2ccccc2)c1=O
inactive: SNB-19 > 100 µM | COLO 205 > 100 µM | SF-268 > 100 µM | SK-MEL-2 > 100 µM | SK-OV-3 > 100 µM | K562 > 100 µM | HOP-92 > 100 µM | SF-539 > 100 µM | OVCAR-8 > 100 µM | 786-0 > 100 µM | OVCAR-5 > 100 µM | A549 > 100 µM | LOX IMVI > 100 µM | TK-10 > 100 µM | NCI-H460 > 100 µM | CCRF-CEM > 100 µM | RXF 393 > 100 µM | UO-31 > 100 µM | KM12 > 100 µM | SN12C > 100 µM
